Results reported in publication PMC7484352 (Archives of biochemistry and biophysics, 2020).

Target: T1, bDAD (DAD V1M) (Burkholderia sp. AZ11, UniProt F7J5X4, V1M)
T1 sequence (F7J5X4 1-177): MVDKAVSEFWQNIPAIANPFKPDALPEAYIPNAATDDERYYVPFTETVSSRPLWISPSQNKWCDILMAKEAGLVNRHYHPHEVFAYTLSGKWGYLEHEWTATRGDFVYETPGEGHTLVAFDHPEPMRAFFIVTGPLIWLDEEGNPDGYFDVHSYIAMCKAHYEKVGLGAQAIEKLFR
Test: UV absorbance at […] nm, DHA consumption
Type: biochemical

O=C(O)c1ccc(O)cc1 [4HB, 4-hydroxybenzoic acid]
Ki: 1100 ± 400 µM
